Consider 11 molecules from US4783530A, “8-arylxanthines” (priority 1987, dated 1988).

For data set [1], the target named is T1, adenosine receptor sites on guinea pig cortical membranes (Cavia porcellus, UniProt P47745).
T1 sequence (P47745 1-326): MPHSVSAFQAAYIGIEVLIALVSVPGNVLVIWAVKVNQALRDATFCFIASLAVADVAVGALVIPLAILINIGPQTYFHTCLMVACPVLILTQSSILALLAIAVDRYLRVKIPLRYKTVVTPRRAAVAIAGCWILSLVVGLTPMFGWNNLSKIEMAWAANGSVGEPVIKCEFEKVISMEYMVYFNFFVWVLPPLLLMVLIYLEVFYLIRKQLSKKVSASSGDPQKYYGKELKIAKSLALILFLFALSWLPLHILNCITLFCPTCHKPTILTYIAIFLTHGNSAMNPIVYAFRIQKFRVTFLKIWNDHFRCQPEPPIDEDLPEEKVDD
Briefly: Adenosine Receptor Binding Assay, inhibition of specific [^3 H]-cyclohexyladenosine ([^3 H]CHA) binding. The conditions noted are these: 4 nM [^3 H]CHA, 120 minutes at 23° C.
Protocol: Adenosine Receptor Binding Assay. The potency of 8-arylxanthine compounds to inhibit the specific binding of [^3 H]-cyclohexyladenosine ([^3 H]CHA) to adenosine receptor sites on guinea pig cortical membranes was examined using standard in vitro ligand binding techniques. […] Briefly, guinea pig cortical tissue was homogenized in ice cold 50 mM Tris HCl buffer (pH 7.4) using a Brinkman Polytron. The homogenate was centrifuged at 48,000 x g for 10 minutes and the resulting tissue pellet was suspended in fresh cold buffer to yield a tissue concentration of 10 mg (wet weight)/ml. This tissue suspension was incubated for 30 minutes at 37° C. in the presence of adenosine deaminase (0.2 I.U./mg tissue). Following this incubation, the tissue suspension was centrifuged as before and the resulting pellet was suspended in fresh buffer at a concentration of 7-10 mg tissue (wet weight)/ml. Inhibition of the specific binding of [^3 H]CHA (New England Nuclear; 25 Ci/mmol) was examined in a total volume of 2 ml containing 50 mM Tris HCl, 7-10 mg of cortical tissue (1 ml of tissue suspension), 4 nM [^3 H]CHA and various concentrations of the test compounds. Nonspecific binding was determined in the presence of 10^-5 M 2-chloroadenosine. The binding reaction was carried out for 120 minutes at 23° C. and was terminated by vacuum filtration over Whatman GF/B filters using a Brandel M-48R Cell Harvester. The filters were washed 3 times with 3 ml of cold buffer and placed in scintillation vials in a Beckman LS 3801 scintillation counter. Dose-inhibition curves were generated with 10-12 concentrations of the test compound using triplicate incubations. The inhibition constants (Ki value) were calculated using EBDA, a log-logit iterative curve fitting program (McPhearson, Comput. Prog. Biomed. 107:220, 1983).

The next data set addresses T2, A1 receptor (Rattus norvegicus, UniProt P25099).
T2 sequence (P25099 1-326): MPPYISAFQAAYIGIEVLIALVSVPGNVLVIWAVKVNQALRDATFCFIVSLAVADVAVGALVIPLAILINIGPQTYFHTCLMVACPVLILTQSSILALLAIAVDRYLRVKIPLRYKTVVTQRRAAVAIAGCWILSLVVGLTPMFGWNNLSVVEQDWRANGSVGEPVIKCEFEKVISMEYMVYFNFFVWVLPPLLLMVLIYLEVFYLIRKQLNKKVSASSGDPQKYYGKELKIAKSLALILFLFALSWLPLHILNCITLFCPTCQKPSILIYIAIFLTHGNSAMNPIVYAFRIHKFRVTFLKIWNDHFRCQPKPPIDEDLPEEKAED
Briefly: biochemical. Conditions: for Ki: Schild analysis, A1 receptor mediated inhibition of adenylate cyclase; for Adenylate cyclase A2 /A1: ratio of A2 Ki to A1 Ki.

In the next data set the target is A2 receptor (Rattus norvegicus, UniProt P30543). The experiment in a line: biochemical. The conditions noted are these: Schild analysis; A2 receptor mediated stimulation of adenylate cyclase, PC12 membranes.
The test system of data set [2] is NECA-induced depression of force and rate of an isolated guinea pig heart. The experiment in a line: NECA Depressed Langendorff Heart. The conditions noted are these: for IC50: guinea pig; for NECA - Depressed Langendorff Heart Force/Rate: ratio of force to rate TC50. On the procedure:
NECA Depressed Langendorff Heart. Hearts were rapidly excised from male guinea-pigs and transferred to a beaker containing a Krebs-bicarbonate solution at 5° C. Each heart was gently massaged to clear it of blood and clots, and the surrounding tissue was cut away. The cut aortic stump was secured to a glass cannula for retrograde perfusion of the coronary circulation.
Perfusion was at a constant rate of 5-7 ml/min, produced with a Holter peristaltic pump. […] Alterations in perfusion pressure arising from changes in coronary vascular resistance were recorded on a Gould recorder by means of Gould pressure transducers attached at a sidearm of the aortic cannula. Isometric contractions of the heart were recorded with a Grass transducer attached by a suture via a pulley to a clip on the apex of the ventricles. Rates of contraction were determined by counting heart beats.
Drugs were added directly into the perfusion solutions. Drug concentrations were changed by switching solutions. Cardiac functions were depressed with NECA or adenosine by infusing a solution of one or the other ([…]) into the perfusion solution through an injection port located immediately adjacent to the warming coil. IC50 is defined as the concentration of compound that will cause 50 percent inhibition of the NECA-induced depression of force and rate of an isolated guinea pig heart.

The nature of data set [3]: Solubility (mg/ml) 37° C.
In another data set the test system is guinea pig thymocytes. The conditions noted are these: less potent than 8-phenyltheophylline; NECA-induced cyclic AMP accumulation; cited from earlier work.
The next data set deals with adenosine receptors. The conditions noted are these: Daly et al. J. Med. Chem. 1985; cited from earlier work.
A further data set has as its system animals. Conditions: in vivo; cited from earlier work.
In a further data set the test system is adenosine (A1) receptor. Conditions: cited from earlier work.
Where [4] appears, read: 50 percent inhibition of the NECA-induced depression of force, read-out: NECA - Depressed Langendorff Heart TC50 Force.
The mark [5] stands for this setting: 50 percent inhibition of the NECA-induced depression of rate, read-out: NECA - Depressed Langendorff Heart TC50 Rate.

≈ marks a conversion by molar mass, not a printed value. Counter-ions that a name gives are not always drawn. Like-named read-outs stand apart in the source and are kept apart here.

Sequence of A2 receptor (P30543 whole entry): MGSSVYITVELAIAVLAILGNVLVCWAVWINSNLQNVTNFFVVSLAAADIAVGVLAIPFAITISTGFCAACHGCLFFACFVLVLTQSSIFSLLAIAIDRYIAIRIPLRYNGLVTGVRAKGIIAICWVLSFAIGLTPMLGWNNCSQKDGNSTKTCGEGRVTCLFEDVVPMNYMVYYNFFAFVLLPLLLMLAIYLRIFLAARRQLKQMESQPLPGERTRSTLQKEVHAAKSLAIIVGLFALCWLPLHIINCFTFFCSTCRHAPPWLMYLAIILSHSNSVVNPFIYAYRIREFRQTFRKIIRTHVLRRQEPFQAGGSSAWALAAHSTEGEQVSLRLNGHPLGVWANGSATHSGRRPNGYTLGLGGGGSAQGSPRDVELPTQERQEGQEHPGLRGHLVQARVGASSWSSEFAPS
Protocol for A1 receptor: The A1 receptor mediated inhibition of adenylate cyclase activity was measured by a modification of the procedure of Londos et al. (Proc. Natl. Acad. Sci. 75: 5362, 1978). Membrane protein (10-15 μg) was added to a reaction mixture containing a final concentration of 25 mM Tris-HCl (pH 7.4), 2 mM MgCl2 50 μM ATP, 50 μM cAMP, 1 mM dithiothreitol, 0.25 mg/ml BSA, 1 IU/ml adenosine deaminase, 5 mM creatine phosphate, 0.2 mg/ml creatine phosphokinase, 80 mM NaCl, [α^32 P]ATP (1.5 c 10^-6 DPM) and 100M GTP in 100 μl final volume. Incubations were carried out for 10 minutes at 24° C.
(§1) The Ki values for the test compounds were derived from Schild analysis as described by Tallarida et al. (Life Sciences 25: 637, 1979) in which the progressive shift in the dose response to a standard agonist was assessed using 3 concentrations of the test compound distributed over a 100-fold molar range. All incubations were performed in triplicate.
Protocol for A2 receptor: The A2 receptor mediated stimulation of adenylate cyclase was measured by a modification of the procedure of Premont et al. (Molec. Pharmacol. 16: 790, 1979). Typically, pheochromocytoma cell (PC12) membranes were thawed and added to a reaction mixture containing a final concentration of 25 mM Tris-HCl, pH 7.1, 1 mM MgCl2, 50 μM ATP, 50 μM cAMP, 0.1 mM papaverine, 0.4 IU/ml adenosine deaminase, 5 mM creatine phosphate, 0.2 mg/ml creatine phosphokinase, 10 μg membrane protein, [α^32 P]ATP (μ10^-6 DPM), 5 μM GTP, and various concentrations of adenosine agonists and/or antagonists in a final volume of 100 μl. The reaction was initiated with the addition of tissue and incubated 30° C. for 20 minutes. Reactions were terminated with 100 μl of 40 mM ATP, 1.4 mM cAMP and 2% SDS. ^32 P-cAMP isolated according to the procedure to the procedure of Salomon et al. (Adv. Cyclic Nucleotide Res. 10: 35, 1979).
as §1

Consider `CCCn1c(=O)c2[nH]c(-c3ccc(C(=N)N)cc3)nc2n(CCC)c1=O` [Pr Pr H C(NH)NH2, 1,3-Dipropyl-8-(4-amidinophenyl)xanthine hydrochloride hemi-hydrate], for which the inhibition constant (Ki) worked out at 81 nM in [1], 9.7 nM on A1 receptor and 309 nM on A2 receptor. The “Adenylate cyclase A2 /A1” value on A1 receptor came to 31.9. Besides, the IC50 worked out at 1400 nM in [2] (setting [4]) and 7030 nM in [2] (setting [5]). Also, the “NECA - Depressed Langendorff Heart Force/Rate” value in data set [2] is 0.20. The molecule further displayed a solubility in data set [3] of 3000 µg/mL.

Take `CCCn1c(=O)c2[nH]c(-c3ccc(CN)cc3)nc2n(CCC)c1=O.Cl.O` [Pr Pr H CH2 NH2, 1,3-Dipropyl-8-(4-aminomethylphenyl)xanthine hydrochloride hydrate]: the Ki in data set [1] is 66.8 nM; on A1 receptor, 16.3 nM; on A2 receptor it was 432 nM. Also, the “Adenylate cyclase A2 /A1” value at A1 receptor turned out to be 26. For the same molecule, the IC50 in data set [2] (setting [4]) was 570 nM; in data set [2] (setting [5]), 2000 nM. The “NECA - Depressed Langendorff Heart Force/Rate” value in [2] is 0.28. In addition, in data set [3], the solubility is 500 µg/mL.

Turning to `CNC(=N)c1ccc(-c2nc3c([nH]2)c(=O)n(C)c(=O)n3C)cc1` [Me Me H C(NH)NHMe, 1,3-Dimethyl-8-(4-N-methylamidinophenyl)xanthine hydrochloride hydrate], in [1], the Ki amounted to 1840 nM. The IC50 in data set [2] (setting [4]) amounted to 3640 nM; in [2] (setting [5]), 18400 nM. Also, the “NECA - Depressed Langendorff Heart Force/Rate” value in data set [2] stood at 0.20.

Turning to `CCCn1c(=O)c2[nH]c(-c3ccc(O)c(CN(C)C)c3)nc2n(CCC)c1=O` [Pr Pr CH2 NMe2 OH, 1,3-Dipropyl-8-(3-N,N-dimethylaminomethyl-4hydroxyphenyl)xanthine hydrochloride hydrate], the Ki in data set [1] worked out at 169 nM; at A1 receptor, 88.7 nM; at A2 receptor it was 664 nM. The “Adenylate cyclase A2 /A1” value on A1 receptor was determined as 7. The IC50 in data set [2] (setting [4]) turned out to be 1490 nM; in [2] (setting [5]) it was 2060 nM. In addition, in [2], the “NECA - Depressed Langendorff Heart Force/Rate” value was determined as 0.72. The molecule also returned a solubility in data set [3] of 25000 µg/mL.

On to `CCCn1c(=O)c2[nH]c(-c3ccc(C(=N)NC)cc3)nc2n(CCC)c1=O` [Pr Pr H C(NH)NHMe, 1,3-Dipropyl-8-(4-N-methylamidinophenyl)xanthine hydrochloride hydrate], for which the inhibitory constant (Ki) is 129 nM in [1], 12 nM at A1 receptor and 140 nM on A2 receptor. Besides, the “Adenylate cyclase A2 /A1” value at A1 receptor is listed as 11.7. For the same molecule, the results for the IC50 in data set [2] (setting [4]) and in data set [2] (setting [5]) were 1470 nM and 3770 nM, respectively. The “NECA - Depressed Langendorff Heart Force/Rate” value in data set [2] amounted to 0.39. The solubility in [3] was determined as 1000 µg/mL.

On to `Cn1c(=O)c2[nH]c(-c3ccc(S(=O)(=O)O)cc3)nc2n(C)c1=O` [(II), 8-[4-sulfophenyl]-theophylline], for which the “potency relative to 8-phenyltheophylline” value in the data set with guinea pig thymocytes is reported as 3 fold. The “selectivity after introduction of the sulfonyl group” value in the data set on adenosine receptors is “decrease in selectivity”.

Turning to `CCCn1c(=O)c2[nH]c(-c3cccc(OCC(O)CO)c3)nc2n(CCC)c1=O` (stereo not shown) [Pr Pr OCH2 (CH2 OH)2 H, 1,3-Dipropyl-8-[3-(2,3-dihydroxypropyloxy)phenyl]xanthine], the IC50 in data set [2] (setting [4]) was found to be 490 nM; in [2] (setting [5]), 1040 nM. Moreover, the “NECA - Depressed Langendorff Heart Force/Rate” value in [2] amounted to 0.47. Moreover, the solubility in data set [3] was found to be 250 µg/mL (≈ 621 µM).

Consider `CCCn1c(=O)c2[nH]c(-c3ccc(NC(=O)N(C)C)cc3)nc2n(CCC)c1=O` [Pr Pr H NHC(=O)NMe2, 1,3-Dipropyl-8-(4-N,N-dimethylureidophenyl) xanthine], for which the figures for the Ki (in data set [1]; at A2 receptor) were 86 nM and 131 nM, respectively. The values for the IC50 in data set [2] (setting [4]) and in [2] (setting [5]) were 360 nM and 980 nM, respectively. The “NECA - Depressed Langendorff Heart Force/Rate” value in data set [2] is 0.61. In [3], the solubility worked out at 80 µg/mL (≈ 201 µM).

Regarding `Cl.Cn1c(=O)c2[nH]c(-c3ccc(C(=N)N)cc3)nc2n(C)c1=O.O` [Me Me H C(NH)NH2, 1,3-Dimethyl-8-(4-amidinophenyl)xanthine hydrochloride hydrate], the results for the Ki (in data set [1]; at A1 receptor; on A2 receptor) were 1140 nM, 244 nM and 523 nM, respectively. On A1 receptor, the “Adenylate cyclase A2 /A1” value is given as 2.1. The IC50 is 2010 nM in [2] (setting [4]) and 15600 nM in [2] (setting [5]). Also, the “NECA - Depressed Langendorff Heart Force/Rate” value in [2] worked out at 0.13.

As for `CCCn1c(=O)c2[nH]c(-c3ccc(Cl)cc3N)nc2n(CCC)c1=O` [PACPX, reference compound], the figures for the Ki (in data set [1]; at A1 receptor; at A2 receptor) were 45 nM, 12.6 nM and 421 nM, respectively. Moreover, the “Adenylate cyclase A2 /A1” value at A1 receptor was found to be 33.4. Further, in [2] (NECA depressed Langendorff heart, guinea pigs), the “force and rate properties / effect on force and rate of contraction (in words)” value is “unfavorable force and rate properties”. In addition, the IC50 amounted to 1110 nM in data set [2] (setting [4]) and 180 nM in [2] (setting [5]). Besides, the “NECA - Depressed Langendorff Heart Force/Rate” value in data set [2] was found to be 6.17. Moreover, the “overt activity in animals” value with animals is “little overt activity in animals”. Moreover, the “selectivity toward A1 adenosine receptor” value in the data set with adenosine (A1) receptor was “selective toward A1 --adenosine receptor”. Also, the solubility in data set [3] is below 0.4 µg/mL.

On to `CCCn1c(=O)c2[nH]c(-c3ccc(C(=O)OCC)cc3)nc2n(CCC)c1=O` [Pr Pr H COOEt, 1,3-Dipropyl-8-(4-carboethoxyphenyl)xanthine], for which the Ki is 423 nM in data set [1], 26.9 nM on A1 receptor and 529 nM on A2 receptor. Also, the “Adenylate cyclase A2 /A1” value on A1 receptor is listed as 20. The IC50 in data set [2] (setting [4]) was found to be 4780 nM; in [2] (setting [5]), 7840 nM. Moreover, in data set [2], the “NECA - Depressed Langendorff Heart Force/Rate” value is reported as 0.61.

As usually defined, the Ki is a dissociation constant, usually derived from enzyme kinetics or from competition with a known ligand. A higher Ki goes with lower affinity. In general, solubility refers to the dissolved amount per volume that the medium holds. High values mean much dissolved substance, low ones little dissolved substance.
